The subject of assay [1] is Aβ40 in conditioned medium of cells expressing amyloid precursor protein. The assay can be described thus: In vitro BACE cell-based assay (HEK cell assay, Aβ40 sandwich ELISA). Conditions: Homo sapiens, HEK293; average IC50; inhibition of Aβ40 after 24 h incubation. On the procedure: In Vitro BACE Cell-Based Assay
The cell-based assay measures inhibition or reduction of Aβ40 in conditioned medium of test compound treated cells expressing amyloid precursor protein.
Cells stably expressing Amyloid Precursor Protein (APP) were plated at a density of 40K cells/well in 96 well plates (Costar). The cells were cultivated for 24 hours at 37° C. and 5% CO2 in DMEM supplemented with 10% FBS. The test compounds were then added to cells in 10-point dose response concentrations with the starting concentration being either 100 μM or 10 μM. The compounds were diluted from stock solutions in DMSO and the final DMSO concentration of the test compounds on cells was 0.1%. After 24 h of incubation with the test compounds the supernatant conditioned media was collected and the Aβ40 levels were determined using a sandwich ELISA. The IC50 of the compound was calculated from the percent of control or percent inhibition of Aβ40 as a function of the concentration of the test compound.
The sandwich ELISA to detect Aβ40 was performed in 96 well microtiter plates, which were pre-treated with goat anti-rabbit IgG (Pierce). The capture and detecting antibody pair that were used to detect Aβ40 from cell supernatants were affinity purified pAb40 (Biosource) and biotinylated 6E10 (Signet Labs Inc.), respectively. The optimal concentration for the pAb40 antibody was 3 μg/ml in Superblock/TBS (Pierce) that was supplemented with 0.05% Tween 20 (Sigma).
Cellular supernatants were incubated with the capture antibody for 3 h at 4° C., followed by 3 wash steps in TBS-tween (0.05%). The detecting antibody incubation was for 2 h at 4° C., again followed by the wash steps as described previously. The final readout of the ELISA is Time-Resolved Fluorescence (counts per minute) using Delfia reagents Streptavidin-Europium and Enhancement solutions (Perkin Elmer) and the Victor 2 multilabel counter (Perkin Elmer).
For orientation: ELISA stands for enzyme-linked immunosorbent assay.

For another assay, the target named is BACE 1 (Homo sapiens (Human), UniProt P56817). Description: In vitro enzymatic BACE FRET assay. Particulars: average IC50; enzyme 0.2 nM, FRET substrate 50 nM, pH 4.2. Format: biochemical. As to the method:
In Vitro Enzymatic BACE FRET (Fluorescence Resonance Energy Transfer) Assay
The assay buffer used in this screen is 0.05 M acetate, pH 4.2, 10% DMSO final, 100 uM genapol (which is a nonionic detergent, below its Critical Micelle Concentration). […] This assay is effectively started by the addition of FRET substrate (50 nM) and the combination is incubated for one hour. The FRET assay is terminated with by addition of Tris buffer, which raises the pH to neutrality, and the fluorescence is determined. The FRET substrate is a peptide with commercially available fluorophore and quencher, on opposite sides of the BACE cleavage site. Proteolytic cleavage of the FRET substrate releases quenching of fluorescence (excitation […] and […]).

Structures are written as SMILES.

BACE 1, sequence (P56817 46-501, species assumed): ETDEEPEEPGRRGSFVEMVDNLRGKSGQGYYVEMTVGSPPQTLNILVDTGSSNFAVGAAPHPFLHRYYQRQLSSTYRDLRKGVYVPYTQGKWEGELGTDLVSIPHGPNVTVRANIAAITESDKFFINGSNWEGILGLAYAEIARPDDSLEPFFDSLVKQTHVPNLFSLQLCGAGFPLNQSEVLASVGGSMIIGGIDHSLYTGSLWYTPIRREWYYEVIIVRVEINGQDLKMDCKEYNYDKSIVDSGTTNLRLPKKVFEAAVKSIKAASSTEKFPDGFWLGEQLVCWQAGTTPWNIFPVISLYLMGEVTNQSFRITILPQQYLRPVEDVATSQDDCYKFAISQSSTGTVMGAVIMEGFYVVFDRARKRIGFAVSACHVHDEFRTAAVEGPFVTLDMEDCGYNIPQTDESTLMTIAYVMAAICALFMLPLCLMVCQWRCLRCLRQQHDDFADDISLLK

As to `CC(C)(C)COc1cc(F)c2c(c1)[C@@]1(COCCC(N)=N1)c1cc(-c3cccnc3F)ccc1O2` [Example 16, (3R)-2′-(2,2-dimethylpropoxy)-4′-fluoro-7′-(2-fluoro-3-pyridinyl)-6,7-dihydrospiro[1,4-oxazepine-3,9′-xanthen]-5-amine], the half-inhibitory concentration (IC50) in assay [1] was determined as 300 nM; on BACE 1 it was 285 nM.
For `NC1=N[C@@]2(CCOC1)c1cc(-c3cccnc3F)ccc1Oc1cnc(N3CCC(F)(F)C3)cc12` [Example 19, (S)-3-(3,3-difluoropyrrolidin-1-yl)-7-(2-fluoropyridin-3-yl)-6′,7′-dihydro-2′H-spiro[chromeno[2,3-c]pyridine-5,5′-[1,4]oxazepin]-3′-amine], in that order: 4 nM and 3 nM.
`NC1=N[C@@]2(COCC1)c1cc(Br)ccc1Oc1cnc(Cl)cc12` [Example 3B, (5S)-7-bromo-3-chloro-6′,7′-dihydrospiro-[chromeno[2,3-c]-pyridine-5,3′-[1,4]oxazepin]-5′-amine]: the IC50 amounted to 892 nM in assay [1] and 3830 nM on BACE 1.
As to `NC1=N[C@]2(CCOC1)c1cc(-c3cccnc3F)ccc1Oc1cnc(-c3ccnc(F)c3)cc12` [Example 17, (5R)-7-(2-fluoro-3-pyridinyl)-3-(2-fluoro-4-pyridinyl)-6′,7′-dihydro-2′H-spiro[chromeno[2,3-c]pyridine-5,5′-[1,4]oxazepin]-3′-amine], the IC50 in assay [1] amounted to 689 nM; at BACE 1, 369 nM.
For `NC1=N[C@]2(COCC1)c1cc(-c3cccnc3F)ccc1Oc1cnc(-c3ccnc(F)c3)cc12` [Example 13, (5R)-7-(2-fluoro-3-pyridinyl)-3-(2-fluoro-4-pyridinyl)-6′,7′-dihydrospiro[chromeno-[2,3-c]-pyridine-5,3′-[1,4]oxazepin]-5′-amine], in that order: 78 nM and 139 nM.
Turning to `NC1=N[C@@]2(COCC1)c1cc(-c3cccnc3F)ccc1Oc1cnc(-c3ccnc(F)c3)cc12` [Example 14, (5S)-7-(2-fluoro-3-pyridinyl)-3-(2-fluoro-4-pyridinyl)-6′,7′-dihydrospiro[chromeno-[2,3-c]-pyridine-5,3′-[1,4]oxazepin]-5′-amine], the half-maximal inhibitory concentration (IC50) stood at 1 nM in assay [1] and 0.5 nM at BACE 1.
The like results for `CC(C)(C)COc1cc(F)c2c(c1)C1(COCCC(N)=N1)c1cc(-c3cccnc3F)ccc1O2` (racemic) [Example 4, (3R/S)-2′-(2,2-dimethylpropoxy)-4′-fluoro-7′-(2-fluoro-3-pyridinyl)-6,7-dihydrospiro[1,4-oxazepine-3,9′-xanthen]-5-amine] were, in that order, 12 nM and 1 nM.
For `CC(C)(C)COc1cc(F)c2c(c1)[C@]1(COCCC(N)=N1)c1cc(-c3cccnc3F)ccc1O2` [Example 15, (3S)-2′-(2,2-dimethylpropoxy)-4′-fluoro-7′-(2-fluoro-3-pyridinyl)-6,7-dihydrospiro[1,4-oxazepine-3,9′-xanthen]-5-amine], in that order: 7 nM and 0.5 nM.
Turning to `NC1=N[C@]2(COCC1)c1cc(Br)ccc1Oc1cnc(Cl)cc12` [Example 3A, (5R)-7-bromo-3-chloro-6′,7′-dihydrospiro-[chromeno[2,3-c]pyridine-5,3′-[1,4]oxazepin]-5′-amine], the IC50 in assay [1] was 6370 nM; on BACE 1, 9230 nM.
`NC1=NC2(COCC1)c1cc(-c3cccnc3F)ccc1Oc1cnc(-c3ccnc(F)c3)cc12` (racemic) [Example 2, (5R/S)-7-(2-fluoro-3-pyridinyl)-3-(2-fluoro-4-pyridinyl)-6′,7′-dihydrospiro-[chromeno-[2,3-c]pyridine-5,3′-[1,4]oxazepin]-5′-amine]: the IC50 was 3 nM in assay [1] and 1 nM at BACE 1.

In general, IC50 refers to the concentration at which inhibition is half-maximal.

(Values after patent US9346827B2, “5-amino-oxazepine and 5-amino-thiazepane compounds as beta secretase antagonists and methods of use” (Amgen Inc., priority 2011, dated 2016).)
